One assay has as its target T1, hPPARδ (Homo sapiens, UniProt Q03181).
T1 construct: fragments of DNA amplified by PCR corresponding to the DEF domains of the human PPARα, PPARγ PPARδ nuclear receptors; expressed in transfected cells; host or cells: COS-7 (monkey kidney fibroblast line)
T1 sequence (Q03181 211-439 limits assumed): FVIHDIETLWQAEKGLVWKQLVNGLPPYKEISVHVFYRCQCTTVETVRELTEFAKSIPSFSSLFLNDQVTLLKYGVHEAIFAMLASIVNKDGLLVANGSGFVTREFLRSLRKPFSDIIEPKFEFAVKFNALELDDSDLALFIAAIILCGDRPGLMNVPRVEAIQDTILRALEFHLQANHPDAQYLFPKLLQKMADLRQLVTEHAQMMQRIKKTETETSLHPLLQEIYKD
Description: Gal4-hPPARδ chimera transactivation in COS-7 cells (luciferase). In kind it is cell-based. Particulars: induction factor standardised to an internal reference, read-out: % hGal4-PPAR transactivation (10 μM) delta. The procedure: (§1) The PPAR activation was evaluated in vitro on a monkey kidney fibroblast line (COS-7) by measuring the transcriptional activity of chimeras constituted of the DNA binding domain of the Gal4 transcription factor of yeast and of the binding domain to the ligand of the different PPARs. The compounds were tested at doses between 0.01 and 100 μM on Gal4-PPARα, γ, δ chimeras. The induction factor (ratio between the luminescence induced by the compound and the luminescence induced by the control) was measured for each condition: the higher this factor, the more the compound has PPAR-activating properties.
(§2) The COS-7 cells from ATCC were cultivated in a DMEM medium supplemented with 10% (vol/vol) of foetal calf serum, 100 U/ml penicillin (Gibco, Paisley, UK) and 2 mM L-Glutamine (Gibco, Paisley, UK). The cells were incubated at 37° C. in a humid atmosphere containing 5% CO2.
(§3) The Gal4(RE)_TkpGL3, pGal4-hPPARα, pGal4-hPPARγ, pGal4-hPPARδ and pGal4-φ plasmids have been described in the literature (Raspe, Madsen et al. 1999). The pGal4-hPPARα, pGal4-hPPARγ and pGal4-hPPARδ constructs were obtained by cloning in the pGal4-φ vector of fragments of DNA amplified by PCR corresponding to the DEF domains of the human PPARα, PPARγ PPARδ nuclear receptors.
(§4) COS-7 cells were plated in 96 wells plates (5×10^4 cells/well) and transfected, in the presence of 10% foetal calf serum and 150 ng DNA per well, with a pGal4-PPAR/Gal4(RE)_TkpGL3 ratio of 1/10. The cells were then incubated for 24 hours with the compounds to be tested, without serum. At the end of the experiment, the cells were lysed and the luciferase activities were determined by means of Steady Glow Luciferase (Promega) according to the supplier's recommendations.
(§5) The inventive compounds were tested at 10 μM on the 3 PPAR isoforms. The results obtained are detailed in table (1). The transactivation measured is expressed as a response ratio versus an internal reference for each of the isoforms.
(§6) The compounds were tested at 10 μM on the Gal4-PPARα, γ, δ chimeras. The induction factor, i.e. the ratio between the luminescence induced by the compound and the luminescence induced by the control, was measured for each condition. It was then standardised in comparison to an internal reference and the results were then expressed in percentages : the higher the activation percentage, the more the compound has PPAR-activating properties.

The target of a further assay is T2, hPPARα (Homo sapiens, UniProt Q07869).
T2 construct: fragments of DNA amplified by PCR corresponding to the DEF domains of the human PPARα, PPARγ PPARδ nuclear receptors; expressed in transfected cells; host or cells: COS-7 (monkey kidney fibroblast line)
T2 sequence (Q07869 239-466 limits assumed): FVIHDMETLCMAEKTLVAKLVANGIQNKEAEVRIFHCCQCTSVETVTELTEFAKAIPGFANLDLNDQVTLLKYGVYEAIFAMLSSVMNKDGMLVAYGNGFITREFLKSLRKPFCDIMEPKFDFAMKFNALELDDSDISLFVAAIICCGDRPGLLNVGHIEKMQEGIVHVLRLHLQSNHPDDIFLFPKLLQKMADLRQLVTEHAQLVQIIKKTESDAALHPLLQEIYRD
Description: Gal4-hPPARα chimera transactivation in COS-7 cells (luciferase). The format is cell-based. The note with it: induction factor standardised to an internal reference, read-out: % hGal4-PPAR transactivation (10 μM) alpha. The procedure:
as §1, §2, §3, §4, §5, §6

In the next assay the target is T3, hPPARγ (Homo sapiens, UniProt P37231).
T3 construct: fragments of DNA amplified by PCR corresponding to the DEF domains of the human PPARα, PPARγ PPARδ nuclear receptors; expressed in transfected cells; host or cells: COS-7 (monkey kidney fibroblast line)
T3 sequence (P37231 238-503 limits assumed): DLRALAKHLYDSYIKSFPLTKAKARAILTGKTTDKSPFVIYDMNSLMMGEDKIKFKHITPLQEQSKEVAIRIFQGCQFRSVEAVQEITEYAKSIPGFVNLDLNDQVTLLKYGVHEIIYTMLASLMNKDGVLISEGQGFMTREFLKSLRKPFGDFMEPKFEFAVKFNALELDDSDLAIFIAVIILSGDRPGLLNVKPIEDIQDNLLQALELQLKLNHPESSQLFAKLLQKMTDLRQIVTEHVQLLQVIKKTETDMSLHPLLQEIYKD
Nature of the assay: Gal4-hPPARγ chimera transactivation in COS-7 cells (luciferase). The format is cell-based. The note with it: induction factor standardised to an internal reference, read-out: % hGal4-PPAR transactivation (10 μM) gamma. The procedure: as §1, §2, §3, §4, §5, §6

For assay [1], the target named is T4, ATP-dependent potassium channels (K+ATP) (Rattus norvegicus, UniProt Q09429).
T4 construct: the potassium channels derive from a rat's cerebral cortex; tissue CEREP; host or cells: rat cerebral cortex
Nature of the assay: [3H]glibenclamide binding to ATP-dependent potassium channels of rat cerebral cortex. The note with it: for inhibition at 0.3 µM: 1 h, 300 nM, specific displacement of [3H]glibenclamide 0.1 nM, read-out: KATP binding (300 nM). The procedure:
The results shown reflect the specific affinity of the inventive compounds on the ATP-dependent (K^+ATP) potassium channels. The specific binding measured corresponds to the difference between the total binding and the non-specific binding determined in the presence of an excess of non-marked reference ligand (glibenclamide 1 μM). The inventive compounds were tested at doses between 3 and 300 nM: the higher the percentage measured, the stronger the affinity of the compound for the ATP-dependent potassium channels.
The binding test was carried out at CEREP (Celle L'Evescault, France (86)) according to a protocol inspired by Angel et al. (Angel and Bidet 1991): the potassium channels derive from a rat's cerebral cortex and the reference compound is [^3H]glibenclamide at 0.1 nM. The protocol consists of incubation at 22° C. for one hour.
On the technique in general: Loss of bound radioactivity is the signal in a displacement assay; it reports binding, not function.

The structures appear in SMILES notation. Some results are limits rather than exact numbers.

The values that follow come from patent publication US20060079696A1, “Substituted compounds derived from N-(benzyl)phenylacetamide, preparation and uses” (GENFIT, priority 2004, published 2006).

T4 sequence (Q09429 whole entry): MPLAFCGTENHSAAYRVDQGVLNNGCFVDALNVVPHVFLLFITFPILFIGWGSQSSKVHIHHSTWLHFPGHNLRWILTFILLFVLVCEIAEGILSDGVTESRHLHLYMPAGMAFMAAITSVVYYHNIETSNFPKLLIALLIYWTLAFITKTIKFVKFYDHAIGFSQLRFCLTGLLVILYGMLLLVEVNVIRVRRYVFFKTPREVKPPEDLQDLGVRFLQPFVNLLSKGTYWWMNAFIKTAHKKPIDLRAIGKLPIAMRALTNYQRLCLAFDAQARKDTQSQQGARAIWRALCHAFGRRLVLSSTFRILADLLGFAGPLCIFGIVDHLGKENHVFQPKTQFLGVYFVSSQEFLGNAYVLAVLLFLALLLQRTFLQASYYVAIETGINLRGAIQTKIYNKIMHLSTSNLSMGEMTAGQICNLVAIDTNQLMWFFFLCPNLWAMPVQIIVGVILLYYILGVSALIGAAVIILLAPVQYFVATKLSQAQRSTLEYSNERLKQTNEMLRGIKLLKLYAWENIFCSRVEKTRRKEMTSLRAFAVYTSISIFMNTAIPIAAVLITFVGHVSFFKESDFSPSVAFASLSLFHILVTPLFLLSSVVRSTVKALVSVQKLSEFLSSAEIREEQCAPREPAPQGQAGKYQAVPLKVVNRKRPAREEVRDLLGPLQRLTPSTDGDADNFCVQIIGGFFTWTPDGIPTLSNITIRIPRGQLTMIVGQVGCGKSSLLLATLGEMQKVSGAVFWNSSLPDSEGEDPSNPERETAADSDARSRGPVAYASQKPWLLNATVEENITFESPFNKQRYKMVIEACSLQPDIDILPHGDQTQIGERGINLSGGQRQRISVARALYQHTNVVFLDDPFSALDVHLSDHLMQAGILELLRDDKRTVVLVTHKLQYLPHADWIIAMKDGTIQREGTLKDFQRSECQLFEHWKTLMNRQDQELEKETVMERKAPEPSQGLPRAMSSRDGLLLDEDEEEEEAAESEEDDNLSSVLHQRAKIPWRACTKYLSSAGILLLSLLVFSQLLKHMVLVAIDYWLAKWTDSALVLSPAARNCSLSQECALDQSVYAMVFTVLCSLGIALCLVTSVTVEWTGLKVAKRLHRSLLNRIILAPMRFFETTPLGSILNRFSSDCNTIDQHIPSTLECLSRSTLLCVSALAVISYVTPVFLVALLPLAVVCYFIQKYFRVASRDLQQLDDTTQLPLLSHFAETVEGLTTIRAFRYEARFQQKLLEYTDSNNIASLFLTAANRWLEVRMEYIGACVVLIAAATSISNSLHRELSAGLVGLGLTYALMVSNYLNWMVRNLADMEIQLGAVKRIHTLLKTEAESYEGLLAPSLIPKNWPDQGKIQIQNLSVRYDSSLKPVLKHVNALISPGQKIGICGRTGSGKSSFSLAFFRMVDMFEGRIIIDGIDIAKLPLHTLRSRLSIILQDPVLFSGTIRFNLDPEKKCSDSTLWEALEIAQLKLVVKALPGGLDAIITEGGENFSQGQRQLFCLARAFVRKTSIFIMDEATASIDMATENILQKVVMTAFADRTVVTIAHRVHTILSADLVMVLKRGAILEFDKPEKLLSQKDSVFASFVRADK
T4 sequence (P70673 whole entry partner): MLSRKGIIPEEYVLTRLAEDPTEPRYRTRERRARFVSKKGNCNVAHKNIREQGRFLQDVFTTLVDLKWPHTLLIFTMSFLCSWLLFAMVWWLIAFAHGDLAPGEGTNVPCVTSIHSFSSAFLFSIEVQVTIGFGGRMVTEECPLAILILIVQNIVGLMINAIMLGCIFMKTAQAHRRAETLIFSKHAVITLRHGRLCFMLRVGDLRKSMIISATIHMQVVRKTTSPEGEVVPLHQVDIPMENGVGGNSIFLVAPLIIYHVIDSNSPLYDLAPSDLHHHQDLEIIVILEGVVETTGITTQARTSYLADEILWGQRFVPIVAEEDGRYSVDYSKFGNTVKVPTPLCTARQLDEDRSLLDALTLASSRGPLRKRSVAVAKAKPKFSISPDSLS

Turning to `CCCCC(NC(=O)Cc1ccc(OC(C)(C)C(=O)NS(=O)(=O)Cc2ccccc2)cc1)c1ccccc1N1CCCCC1` (stereo not shown) [Compound 63, N-[benzylsulfonyl]-2-[4-[1-(1-(2-(1-piperidinyl)phenyl)pentyl)aminocarbonylmethyl]phenoxy]-2-methylpropanamide], the values for the activation at 10 µM at hPPARδ, on hPPARα and at hPPARγ were under 10%, 26% and under 10%, respectively. Moreover, in assay [1], the inhibition at 0.3 µM was determined as 67%.
Consider `CC(C)CC(NC(=O)Cc1ccc(OCCCC(C)(C)C(=O)O)cc1)c1ccccc1N1CCCCC1` (stereo not shown) [Compound 28, 5-[4-[1-(3-methyl-1-(2-(1-piperidinyl)phenyl)butyl)aminocarbonylmethyl]phenoxy]-2,2-dimethylpentanoic acid], for which the activation at 10 µM on hPPARδ was under 10%; at hPPARα, 35%; on hPPARγ it was 17%. The inhibition at 0.3 µM in assay [1] worked out at 30%.
For `CCCCC(NC(=O)Cc1ccc(OC(C)(C)C(=O)O)cc1)c1cccc(F)c1N1CCCCC1` (stereo not shown) [Compound 45, 2-[4-[1-(1-(3-fluoro-2-(1-piperidinyl)phenyl)pentyl)aminocarbonylmethyl]phenoxy]-2-methylpropanoic acid] the same measures were under 10%, 31%, 62% and 66%.
In the case of `CCCCC(NC(=O)Cc1ccc(OC(C)(C)C(=O)O)cc1)c1ccccc1OC` (stereo not shown) [Compound 54, 2-[4-[1-(1-(2-(methoxy)phenyl)pentyl)aminocarbonylmethyl]phenoxy]-2-methylpropanoic acid], the figures for the activation at 10 µM on hPPARδ, at hPPARα and at hPPARγ were under 10%, under 10% and 30%, respectively. Besides, the inhibition at 0.3 µM in assay [1] was found to be 79%.
For the compound `Cc1cccc(CC(NC(=O)Cc2ccc(OC(C)(C)C(=O)O)cc2)c2ccccc2N2CCCCC2)c1` (stereo not shown) [Compound 55, 2-[4-[1-(2-(3-methylphenyl)-1-(2-(1-piperidinyl)phenyl)ethyl)aminocarbonylmethyl]phenoxy]-2-methylpropanoic acid], the activation at 10 µM at hPPARδ is under 10%; on hPPARα, under 10%; on hPPARγ, 33%. For the same compound, the inhibition at 0.3 µM in assay [1] amounted to 27%.
With `CCCCC(NC(=O)Cc1ccc(OC(C)(C)C(=O)O)cc1)c1ccc(Br)cc1N1CCCCC1` (stereo not shown) [Compound 33, 2-[4-[1-(1-(2-(1-piperidinyl)-4-(bromo)phenyl)pentyl)aminocarbonylmethyl]phenoxy]-2-methylpropanoic acid], the activation at 10 µM was 23% on hPPARδ, under 10% on hPPARα and 42% on hPPARγ. Besides, the inhibition at 0.3 µM in assay [1] amounted to 51%.
As to `CCCCC(NC(=O)Cc1ccccc1OCCCC(C)(C)C(=O)O)c1ccccc1N1CCCCC1` (stereo not shown) [Compound 53, 5-[2-[1-(1-(2-(1-piperidinyl)phenyl)pentyl)aminocarbonylmethyl]phenoxy]-2,2-dimethylpentanoic acid], the activation at 10 µM on hPPARδ was under 10%; on hPPARα, under 10%; at hPPARγ, 40%. Moreover, the inhibition at 0.3 µM in assay [1] was determined as 25%.
Turning to `CC(C)CC(NC(=O)C(C)c1ccc(OC(C)(C)C(=O)O)cc1)c1ccccc1N1CCCCC1` (stereo not shown) [Compound 34, 2-[4-[1-methyl-1-[1-(3-methyl-1-(2-(1-piperidinyl)phenyl)butyl)aminocarbonyl]methyl]phenoxy]-2-methylpropanoic acid], the activation at 10 µM at hPPARδ was under 10%; on hPPARα, under 10%; at hPPARγ it was 30%. Besides, in assay [1], the inhibition at 0.3 µM was found to be 81%.
For the compound `CCCCC(NC(=O)Cc1ccc(OC(C)(C)C(=O)NS(=O)(=O)c2ccccc2)cc1)c1ccccc1N1CCCCC1` (stereo not shown) [Compound 61, N-[phenylsulfonyl]-2-[4-[1-(1-(2-(1-piperidinyl)phenyl)pentyl)aminocarbonylmethyl]phenoxy]-2-methylpropanamide], the activation at 10 µM on hPPARδ is under 10%; on hPPARα it was 20%; on hPPARγ, under 10%. Further, the inhibition at 0.3 µM in assay [1] is 23%.
Consider `CC(C)CC(NC(=O)Cc1ccc(OC(C)(C)C(=O)O)cc1)c1ccc(C(F)(F)F)cc1N1CCCCC1` (stereo not shown) [Compound 21, 2-[4-[1-(3-methyl-1-(2-(1-piperidinyl)-4-(trifluoromethyl)phenyl)butyl)aminocarbonylmethyl]phenoxy]-2-methylpropanoic acid], for which the activation at 10 µM at hPPARδ was 24%; on hPPARα, under 10%; at hPPARγ it was 25%. Besides, the inhibition at 0.3 µM in assay [1] worked out at 68%.
For `CCCC(NC(=O)Cc1ccc(OC(C)(C)C(=O)O)cc1)c1ccccc1N1CCCCC1` (stereo not shown) [Compound 65, 2-[4-[1-(1-(2-(1-piperidinyl)phenyl)butyl)aminocarbonylmethyl]phenoxy]-2-methylpropanoic acid] the same measures were under 10%, under 10%, 50% and 90%.
Broadly, the IC50 is the concentration at which inhibition is half-maximal. Read a low IC50 as greater potency. Turning to `CCCCC(NC(=O)Cc1ccc(OC(C)(C)C(=O)O)cc1)c1ccccc1N1CCCCC1` (stereo not shown) [Compound 10, 2-[4-[1-(1-(2-(1-piperidinyl)phenyl)pentyl)aminocarbonylmethyl]phenoxy]-2-methylpropanoic acid], the activation at 10 µM is under 10% at hPPARδ, 11% on hPPARα and 49% on hPPARγ. This compound also showed a 50% inhibitory concentration (IC50) in assay [1] (FIG. 2) of 63 nM.
`CC(C)CC(NC(=O)Cc1ccc(OCCCCC(C)(C)C(=O)O)cc1)c1ccccc1N1CCCCC1` (stereo not shown) [Compound 57, 6-[4-[1-(3-methyl-1-(2-(1-piperidinyl)phenyl)butyl)aminocarbonylmethyl]phenoxy]-2,2-dimethylhexanoic acid]: the activation at 10 µM at hPPARδ is under 10%; at hPPARα it was 29%; at hPPARγ, under 10%. For the same compound, the inhibition at 0.3 µM in assay [1] is 18%.
